# Results reported in patent US11083197B2, “Herbicidal composition comprising chromone derivatives and a method for weed control” (INVESTIGACIONES BIOLÓGICAS EN AGROQUÍMICOS ROSARIO S.A., priority 2015, dated 2021).
# System: crabgrass (D. sanguinalis), barnyardgrass (E. crus-galli) and velvetleaf (A. theophrasti)
# Assay: Greenhouse postemergence spray, 4.0 kg ai/ha
# Format: in vivo
# Experimental: Aqueous solution containing commercial standard of pure compound of Formula IV was prepared and sprayed on crabgrass (D. sanguinalis), barnyardgrass (E. crus-galli) and velvetleaf (A. theophrasti). Plants were sprayed at 2-3 true leaf stage (13-16-day-old plants). For better dissolution of compounds in water AGRIDEX (1% v/v) and acetone (1% v/v) were added to spray solutions. Final rate of compounds was 4.0 kg ai ha^−1. Plant height and dry weight were measured at 11 days after spray. Results were compared with the bio herbicide pelargonic acid at 4.0 kg ai ha^−1.
smiles,measurement,setting,value
"COc1c2ccoc2cc2oc(C)cc(=O)c12 [Formula IV, 4-methoxy-7-methyl-5H-furo[3,2-g]chromen-5-one]",kind of postemergence herbicidal activity,,by contact and non-selective
same,height and biomass of sprayed weeds versus control plants,11 days after spray,significantly smaller
same,symptoms on treated plants,11 days after treatment,necrotic lesions and some abnormally formed leaves
